# Source: US6924309B2 (Children, Youth and Women's Health Service Incorporated, priority 1999, dated 2005)
# Like-named read-outs stand apart in the source and are kept apart here.
# Columns and labels:
# [1] = tested on: Plasmodium falciparum isolates 3D7, FC27, K+; assay: Radiometric (3H-hypoxanthine) assay on asexual blood stages of P. falciparum; type: cell-based; conditions: for EC50: Plasmodium falciparum, read-out: EC50 against P. falciparum
# Description: Using the radiometric assay^(36), the effects of the Lx compounds were examined for antimalarial activity. The Plasmodium falciparum isolates used were 3D7, FC27, K^1 and K^+. These were maintained in human blood group O^+ erythrocytes essentially as described previously using RPM-1640 (HEPES modification) supplemented with 0.25% D-glucose, 0.2% Tess buffer (Sigma Chemical Co, Lt Louis, Mo.) and 10% heat inactivated (56° C., 20 min) human blood group AB serum. Cultures were maintained in tissue culture flasks (Corning, N.Y.) at 37° C. under an atmosphere of 1% 2, 5% CO2 in N2. P. falciparum cultures containing approximately 3.0:% parasitaemia were adjusted to 1×10^8 erythrocytes/ml. To 50 μl of the parasite-erythrocyte culture (5×10^6 erythrocytes) in wells of 96-well microdilution plates wvas added 50 μl of the designated concentration of fatty acid or equivalent amounts of solutions or media. The treated cultures were incubated at 37° C. for 4 h and then pulsed with 50 μl (2.5 μCi) of ^3H-hypoxanthine. After a further 18 h incubation the parasites-erythrocytes were harvested onto glass fibre filter papers using a cell harvester. The amount of radioactivity incorporated was measured in a β-counter. The results have been expressed as % inhibition of parasite growth i.e. the dpm in the fatty acid diluent−dpm in the fatty acid treated cultures/dpm in diluent×100.
# 5-LO = assay: Effect on 5-LO catalysed oxidation of arachidonic acid; type: biochemical
# 15-LO = target: T1, 15-LO (Glycine max, UniProt P08170); assay: Effect on 15-LO catalysed oxidation of arachidonic acid; type: biochemical, soybean; conditions: for Ki: mixed inhibition pattern
# T1 construct: purchased Sigma Chemical Company
# T1 sequence (P08170 1-839): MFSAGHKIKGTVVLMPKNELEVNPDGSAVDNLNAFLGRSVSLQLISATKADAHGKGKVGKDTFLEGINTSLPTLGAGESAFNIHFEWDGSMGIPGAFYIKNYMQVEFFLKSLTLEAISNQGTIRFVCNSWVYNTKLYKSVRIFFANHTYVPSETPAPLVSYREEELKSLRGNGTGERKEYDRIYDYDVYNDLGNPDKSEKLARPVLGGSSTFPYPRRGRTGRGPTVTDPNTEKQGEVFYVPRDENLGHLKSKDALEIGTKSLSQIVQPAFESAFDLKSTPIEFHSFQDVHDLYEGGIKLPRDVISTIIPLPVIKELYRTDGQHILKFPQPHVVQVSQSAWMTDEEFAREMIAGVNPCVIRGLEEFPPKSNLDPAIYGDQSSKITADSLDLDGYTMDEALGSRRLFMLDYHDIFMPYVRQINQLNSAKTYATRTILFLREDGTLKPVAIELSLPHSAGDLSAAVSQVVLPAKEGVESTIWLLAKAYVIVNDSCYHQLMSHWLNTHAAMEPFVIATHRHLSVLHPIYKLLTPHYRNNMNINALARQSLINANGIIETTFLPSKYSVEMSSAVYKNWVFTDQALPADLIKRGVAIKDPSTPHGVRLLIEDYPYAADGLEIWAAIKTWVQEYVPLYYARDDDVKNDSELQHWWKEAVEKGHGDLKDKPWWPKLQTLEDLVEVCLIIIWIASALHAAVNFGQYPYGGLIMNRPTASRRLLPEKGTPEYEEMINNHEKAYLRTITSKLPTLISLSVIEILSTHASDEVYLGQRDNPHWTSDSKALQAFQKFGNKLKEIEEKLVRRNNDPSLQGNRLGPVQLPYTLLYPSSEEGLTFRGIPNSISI
# Paw oedema = conditions: in vivo
# 12-LO = target: T2, 12-LO (Sus scrofa, UniProt P16469); assay: Effect on 12-LO catalysed oxidation of arachidonic acid; type: biochemical, porcine
# T2 construct: purchased Cayman Chemical Company
# T2 sequence (P16469 1-663): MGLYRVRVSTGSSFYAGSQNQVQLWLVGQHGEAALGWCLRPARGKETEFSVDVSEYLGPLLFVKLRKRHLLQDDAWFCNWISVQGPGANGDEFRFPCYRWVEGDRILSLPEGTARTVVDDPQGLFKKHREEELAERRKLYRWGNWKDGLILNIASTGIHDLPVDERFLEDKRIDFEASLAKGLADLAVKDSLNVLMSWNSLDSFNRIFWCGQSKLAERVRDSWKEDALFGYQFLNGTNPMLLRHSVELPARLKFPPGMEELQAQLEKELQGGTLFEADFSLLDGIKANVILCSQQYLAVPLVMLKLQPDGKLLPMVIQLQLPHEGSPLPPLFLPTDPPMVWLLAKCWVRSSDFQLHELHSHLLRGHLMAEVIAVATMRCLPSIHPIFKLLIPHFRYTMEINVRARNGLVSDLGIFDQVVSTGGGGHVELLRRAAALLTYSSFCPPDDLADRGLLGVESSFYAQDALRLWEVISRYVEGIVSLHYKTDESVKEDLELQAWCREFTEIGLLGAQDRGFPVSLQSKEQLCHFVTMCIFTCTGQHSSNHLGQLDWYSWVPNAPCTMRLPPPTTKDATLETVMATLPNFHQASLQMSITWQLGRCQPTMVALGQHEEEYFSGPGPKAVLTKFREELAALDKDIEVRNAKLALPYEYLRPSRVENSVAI
# TNF-α = TNF-α production by human peripheral blood leukocytes; type: cell-based; conditions: Leukocyte, stimulus S. aureus, read-out: % Inhibition (compared to control) of TNF-α
# Description: (§1) The effects of the nitroalkanes (Lx1-Lx5) on lymphocyte activation and cytokine production were examined. The ability of the PUFA to suppress mitogen-induced proliferation in response to PHA and S. aureus, and to inhibit cytokine production (TNFα and IFNγ), was assessed.
# IFN-γ = IFN-γ production by human peripheral blood leukocytes; type: cell-based; conditions: Leukocyte, stimulus PHA, read-out: % Inhibition (compared to control) of IFN-γ
# Description: as §1
# human neutrophils = assay: AA-enhanced chemiluminescence in human neutrophils; type: cell-based; conditions: neutrophils pretreated with compound
# Description: Arachidonic acid (AA) is a natural agonist which stimulates oxygen radical production in neutrophils leading to tissue damage during inflammation. Studies were conducted to examine whether or not the Lx compounds could antagonise the effects of AA. Neutrophils were pretreated with Lx compounds and then examined for chemiluminescence response to AA addition. […] The effect of Lx compounds on AA-enhanced chemiluminescence in human neutrophils is shown graphically in FIG. 11.
smiles,measurement,setting,value
"CC/C=C\C/C=C\C/C=C\C/C=C\C/C=C\C/C=C\CCC(=O)O [22:6n-3, docosahexaenoic acid, reference compound]",EC50,"[1]; 3D7, isolate FC27",12 µg/mL
same,EC50,"[1]; 3D7, isolate K+",4 µg/mL
same,Reduction of antimalarial activity by human serum,"[1]; compound 20 μg/ml, presence of human serum",85%
"CCCCCCCCCCCCCCCCCC[N+](=O)[O-] [Lx1, 1-Nitrooctadecane]",Effect on 5-LO catalysed oxidation of AA,5-LO,Nil
same,Effect on 15-LO catalysed oxidation of AA,15-LO,Nil
same,Effect in paw oedema,Paw oedema,inflammatory
same,Effect on 12-LO catalysed oxidation of AA,12-LO,Nil
"CC/C=C\C/C=C\C/C=C\CCCCCCCC[N+](=O)[O-] [Lx2, (z,z,z)-1-Nitro-9,12,15-octadecatriene]",Effect on 15-LO catalysed oxidation of AA,15-LO,Nil
same,inhibition at 20 µM,TNF-α,43.7%
same,Antimalarial activity (in words),[1],most promising
same,inhibition at 20 µM,IFN-γ,40.4%
"CCCCC/C=C\C/C=C\C/C=C\C/C=C\CCCC[N+](=O)[O-] [Lx4, (a11-z)-1-Nitro-5,8,11,14-eicosatetraene]",Effect on 5-LO catalysed oxidation of AA,5-LO,Nil
same,Effect on 15-LO catalysed oxidation of AA,15-LO,Nil
same,inhibition at 20 µM,TNF-α,34%
same,"Antimalarial activity on P. falciparum 3D7 (FIG. 1, in words)",[1]; isolate 3D7,activity is lost
same,Effect on 12-LO catalysed oxidation of AA,12-LO,Nil
same,inhibition at 20 µM,IFN-γ,79.8%
"CC/C=C\C/C=C\C/C=C\C/C=C\C/C=C\C/C=C\CCC[N+](=O)[O-] [Lx5, (a11-z)-1-Nitro-4,7,10,13,16,19-docosahexaene]",Effect on 15-LO catalysed oxidation of AA,15-LO,Nil
"CCCCCCCCCCCCCCCCCC(CCC(=O)O)[N+](=O)[O-] (centres unmarked) [Lx6, 4-Nitrohenicosanoic acid]",Effect on 5-LO catalysed oxidation of AA,5-LO,Inhibitory
same,Effect on 5-LO catalysed oxidation of AA,5-LO; listed as 4-nitrohenicosanoic acid,selective inhibitors
same,Effect on 5-LO catalysed oxidation of AA,5-LO; listed as 6a,inhibiting 5-LO
same,IC50,"5-LO; read-out: IC50, 5-LO catalysed oxidation of AA",60 µM
same,Effect on 15-LO catalysed oxidation of AA,15-LO,Activatory
same,Effect on 15-LO catalysed oxidation of AA,15-LO; listed as 6a,not 15LO
same,Effect on 12-LO catalysed oxidation of AA,12-LO,Activatory
same,Effect on 12-LO catalysed oxidation of AA,12-LO; listed as 6a,Neither 8a nor 6a inhibits 12-LO
"CCCCCCCCCCCCCCCCCC(CCC(=O)O)(CCC(=O)O)[N+](=O)[O-] [Lx8, 3-Heptadecyl-3-nitropentane-1,5-dicarboxylic acid]",Effect on 5-LO catalysed oxidation of AA,5-LO,Nil
same,Effect on 15-LO catalysed oxidation of AA,15-LO,Inhibitory
same,Effect on 15-LO catalysed oxidation of AA,"15-LO; listed as 3-heptadecyl-3-nitropentane-1,5-dicarboxylic acid",selective inhibitors
same,Effect on 15-LO catalysed oxidation of AA,15-LO; listed as 8a,inhibitory effect
same,Ki,"15-LO; read-out: Ki, 15-LO catalysed oxidation of arachidonic acid",27.4 µM
same,Ki,"15-LO; read-out: Kl (second inhibitor constant; printed Ki in Table 3), 15-LO catalysed oxidation of arachidonic acid",55.2 µM
same,Effect on 12-LO catalysed oxidation of AA,12-LO,Activatory
same,Effect on 12-LO catalysed oxidation of AA,12-LO; listed as 8a,Neither 8a nor 6a inhibits 12-LO
"CCCCC/C=C\C/C=C\C/C=C\C/C=C\CCCC(CCC(=O)O)(CCC(=O)O)[N+](=O)[O-] [Lx9, 3-[(a11-Z)-Nonadeca-4,7,10,13-tetraenyl] 4-nitroheptane-1,7-dicarboxylic acid]",Effect on 5-LO catalysed oxidation of AA,5-LO,Activatory
same,Inhibition of AA-stimulated oxygen radical production (chemiluminescence),human neutrophils,particularly evident
same,Effect on 15-LO catalysed oxidation of AA,15-LO,Nil
same,Antimalarial activity (in words),[1],did not have appreciable antimalarial activity
same,Effect on 12-LO catalysed oxidation of AA,12-LO,Inhibitory
same,Effect on 12-LO catalysed oxidation of AA,"12-LO; listed as 3-(all-Z)-nonadeca4,7,10,13-tetraeny]-3-nitropertane-1,5-dicarboxylic acid",selective inhibitors
same,Effect on 12-LO catalysed oxidation of AA,12-LO; listed as 8b,significant inhibitory effect
